Patent US11419913B2, “Pharmaceutical compositions for inhibiting inflammatory cytokines” (S.I.S. SHULOV INNOVATIVE SCIENCE LTD., priority 2018, dated 2022)
Where a SMILES comes first, the peptide text is derived from it. [ ]: non-standard residue; d: D form. The star is where a group is joined. pGlu = O=C1CC[C@@H](C(=O)O)N1; Octanoyl = CCCCCCCC(=O)*

Assays:
[1] = tested on: IL-1beta; assay: Expression of IL-1 beta by Nigericin-activated macrophages; assay type: cell-based, mouse; design: IL-1beta: unit not given here; conditions: ZEP4 50 μg/mL, LPS 100 ng/mL, Nigericin 20 mM
Description: Macrophage cells originating from C7BL/6 mice were cultured at a density of 200,000 cells/mL in a 24-well plate (500 μl wells) and incubated at 37° C. and […] overnight. Following the overnight incubation, media were replaced with fresh media containing 100 ng/mL LPS. Three hours later, the LPS-containing media were replaced with fresh media containing 50 μg/ml ZEP4 to treatment wells. Following one-hour incubation, Nigericin (20 mM) aliquots were added to the ZEP4 treated and LPS control wells. The plates were incubated for additional 24 hour and the amount of IL-1beta in each well was measured. Reduction in […] production in the treatment group was calculated relative to cells treated with LPS and nigericin (LPS+N).

[2] = tested on: TNF alpha; assay: ZEP3 pretreatment, expression of TNF alpha by LPS treated macrophages; assay type: cell-based, mouse; conditions: ZEP3 50 μg/mL 1 hour before LPS 100 ng/mL
Description: Macrophages originating from C57BL/6 mice were cultured at a density of 200,000 cells/mL in a 24-well plate (500 μl wells) and placed in a 37° C., 5% CO2 Incubator overnight. Following the overnight incubation media were replaced with fresh media containing 50 μg/ml ZEP3. Following 1-hour incubation 100 ng/mL LPS was added to the appropriate wells, the plates were incubated for additional 24 hours, then the amount of TNF alpha in each well was measured.

[3] = tested on: B6 Macrophage cells; assay: Viability of macrophages activated by LPS and palmitic acid (LDH Cytotoxicity Assay Kit); assay type: cell-based, mouse; conditions: ZEP3 50 μg/ml, LPS 100 ng/ml; for OD (LDH Cytotoxicity Assay): 24 hours
Description: Macrophages originating from C57BL/6 mice were cultured at a density of 200,000 cells/mL in a 24-well plate (500 μl well) and incubated at 37° C. and 5% CO2 overnight. Following the overnight incubation, media were replaced with fresh media containing 100 ng/mL LPS, followed by three hours incubation. The LPS-containing media in the treatment groups were then replaced with fresh media containing ZEP3 at concentration of 50 μg/ml, followed by one-hour incubation. Next, palmitic acid (100, 200 or 400 μM) was added to the appropriate wells. The plates were incubated for additional 24 hours and the viability of cells was estimated using an LDH Cytotoxicity Assay Kit.

[4] = tested on: IFNγ; assay: IFN-γ production in LPS-stimulated human PBMCs; assay type: cell-based; conditions: ZEP3 40, 100 and 150 μg/ml, 1 hr pre-treatment, LPS 24 hours; 4 donors (FIG. 9)
Description: (§1) The effect of the peptide ZEP3 (SEQ ID NO: 1) on cytokine production was evaluated in an in vitro human model of inflammation. Human Peripheral Blood Mononuclear Cells (PBMCs) were stimulated using Lipopolysaccharide (LPS) to produce cytokines.
(§2) Method: Briefly, cryopreserved human PBMCs of four healthy non-smokers, not on any corticosteroids or other inflammatory drugs, were grown in RPMI 1640 with 10% heat inactivated fetal bovine serum (FBS), 100 U/ml penicillin and 100 μg/mL streptomycin (complete growth medium, CGM).
(§3) Human PBMCs were thawed and plated for all groups (1-6, Table 7), and rested for 1 hour before treatment. […] 24 hours post LPS addition, Almar Blue fluorescent at 585 nm (correlating with cell viability), is measured and supernatant is collected for cytokine determination. […]
(§4) Detailed method: cells were thawed according to manufacturer's instructions, washed in CGM and assessed for viability using trypan blue staining. […] At 24 hours post LPS stimulation, plates were read for assessment of cell viability and cell culture supernatants were harvested and stored at −80° C. for cytokine analysis. […] Cytokine production and percentage of sample stimulation vs. the average of the stimulation control were calculated.

[5] = tested on: IL-6; assay: IL-6 in corneal epithelial cell culture dry eye disease model; assay type: cell-based, human
Description: (§5) The anti-inflammatory effect of the peptides in experimental corneal inflammation was tested in a cell culture model using various inflammasome inducers such as LPS, 4-HNE, Nigericin and others to model a dry-eye-disease (DED). Using a dose-response model, human primary corneal epithelial cells were pre-treated with the peptides followed by exposure to DED inducers. Expression of IL-6 was measured as well as cell viability, ROS production.
(§6) Human primary Corneal Epithelial Cells (PCS-700-010; HCECs) were treated with ZEP3 at concentrations ranging from 3 to 12 μg/ml for 2 hours then exposed to LPS, 4-HNE or Nigericin for 24 hours. Following incubation, the levels of the pro-inflammatory cytokine IL-6, cell viability and reactive oxygen species (ROS) production in the cell cultures were measured.

[6] = tested on: IL-10; assay: IL-10 production in LPS-stimulated human PBMCs; assay type: cell-based; conditions: ZEP3 40, 100 and 150 μg/ml, 1 hr pre-treatment, LPS 24 hours; 4 donors
Description: as §1, §2, §3, §4

[7] = tested on: Human primary Corneal Epithelial Cells; assay: Cell viability (LDH assay) in corneal epithelial cell culture dry eye disease model; assay type: cell-based
Description: as §5, §6

[8] = tested on: IL-1B; assay: IL-1B production in LPS-stimulated human PBMCs; assay type: cell-based; conditions: ZEP3 40, 100 and 150 μg/ml, 1 hr pre-treatment, LPS 24 hours; 4 donors
Description: as §1, §2, §3, §4

Row | Structure (SMILES) | IL-1beta ([1]; 24 hour) | % reduction of IL-1beta ([1]; relative to LPS and nigericin (LPS+N)) [%] | TNF alpha ([2]; 24 hours) [pg/mL] | % reduction of TNF alpha ([2]; vs LPS control) [%] | OD (LDH Cytotoxicity Assay) ([3]; palmitic acid 100 μM) | OD (LDH Cytotoxicity Assay) ([3]; palmitic acid 200 μM) | OD (LDH Cytotoxicity Assay) ([3]; palmitic acid 400 μM) | effect on the viability of inflammation-induced macrophage cells ([3]; palmitic acid 100, 200 or 400 μM) | interferon gamma (IFNγ) production [4] | level of IL-6 in cell culture ([5]; HCECs pre-treated with ZEP3 (3 to 12 μg/ml, 2 hours), exposed to 4-HNE for 24 hr (FIG. 7)) [pg/mL] | reduction of IL-6 level ([5]; ZEP3 treated vs untreated cell culture, 4-HNE 24 hr (FIG. 7)) [%] | IL-10 production (FIG. 10) [6] | cell death density ([7]; HCECs treated with ZEP3 and exposed to inflammation inducer, LDH assay (FIG. 6)) [%] | reduction of cell death density ([7]; ZEP3 treated vs untreated cell culture (FIG. 6)) [%] | IL-1B production [8]
1 | C[C@@H](O)[C@H](NC(=O)[C@H](Cc1c[nH]c2ccccc12)NC(=O)[C@H](CC(N)=O)NC(=O)[C@@H]1CCC(=O)N1)C(=O)O [ZEP4, pGlu-Asn-Trp-Thr-OH] (HELM PEPTIDE1{[Glp].N.W.T}$$$$V2.0) | 157.1 | 53.8 | – | – | – | – | – | – | – | – | – | – | – | – | –
2 | CCCCCCCC(=O)NCCCC[C@H](NC(=O)[C@H](Cc1c[nH]c2ccccc12)NC(=O)[C@H](CC(N)=O)NC(=O)[C@@H]1CCC(=O)N1)C(=O)O [ZEP3, pGlu-Asn-Trp-Lys(Octanoyl)-OH] ([pGlu]NWK(Octanoyl)-OH) | – | – | 101.2 | 46.7 | 1.437 | 1.496 | 1.6095 | no significant effect | significant reduction | 38.1 ± 1.37 | 27.4 | significant reduction | 3.625±1.092 | 82.8 | significant reduction
